Values quoted from earlier work, collected in patent publication US20090191608A1, “Pancreatic Islet Cell Preparation and Transplantation” (Baylor Research Institute, priority 2008, published 2009).

Experiments:
[1] = in vivo

Row | Molecule | Half-life [1] | Time to reach a new steady-state level after the change of dose [1] [weeks] | Occurrence of mouth ulcers (most common side effect) | Incidence of heparin-induced thrombocytopenia (in vivo) [%]
1 | CO[C@H]1C[C@@H]2CC[C@@H](C)[C@@](O)(O2)C(=O)C(=O)N2CCCC[C@H]2C(=O)O[C@H]([C@H](C)C[C@@H]2CC[C@@H](O)[C@H](OC)C2)CC(=O)[C@H](C)/C=C(\C)[C@@H](O)[C@@H](OC)C(=O)[C@H](C)C[C@H](C)/C=C/C=C/C=C/1C [Sirolimus] | approximately 3 days | 2 | up to 85% | –
2 | Enoxaparin [Lovenox] | – | – | – | 0.2
